For 23 molecules, EC50 results are on record in patent publication US9416139B2, “Spiro ring compound as hepatitis C virus (HCV) inhibitor and uses thereof” (SUNSHINE LAKE PHARMA CO., LTD., priority 2012, dated 2016).

Molecules are shown by their SMILES.

The test system of one test is HCV 1a replicon. Nature of the test: HCV GT1a replicon assay in Huh-7 cells. It is filed as cell-based, Hepatitis C virus. The following applies: Hepatitis C virus; Huh-7 cells transfected with HCV replicon, 72 hours incubation; read-out: EC50 against HCV 1a genotype. The method, then: (§1) HCV Replicon System was utilized as an evaluation model in the present disclosure for verifying the effects of the compounds disclosed herein on HCV. An HCV Replicon assay was first described in Science, 1999, 285 (5424), 110-3. […] To determine the potential anti-HCV effects of the test compounds, luciferase assay and antibiotic Neomycin resistance gene were tested according to the method described in Science. 1999 Jul. 2; 285 (5424), 110-3 and J. Virol. 2003 March; 77 (5), 3007-19.
(§2) In a word, the compounds disclosed herein were tested by using human hepatic carcinoma cell line which is transfected stably HCV GT1a, GT1b or GT2a replicon respectively, and resistant cells Y93H, L31F, P32L or I302V and wild-type cells HCV 1b. HCV Replicon System disclosed herein containing Neomycin resistance gene and Luciferase Reporter Gene, the level of HCV replication in host cells is characterized by the expression level of the NEO gene expression level or Luciferase Reporter Gene, and the effects of the compounds herein inhibit HCV replication can be evaluated. In this article, a real-time quantitative polymerase chain reaction (qPCR) method was used to detect NEO gene expression level, and chemiluminescence method was used to test Luciferase Reporter Gene expression level.
(§3) 1. Test Method for Measuring EC50 of the Compounds Base on Luciferase Assay.
(§4) The Huh-7 cells transfected with HCV replicons system were seeded into 96-well plates (8,000 cells in 125 μL/well) respectively; each test compound was diluted to desired concentration using 5-fold serial dilutions protocol, 10 doses in duplicate, and added to wells with POD™ 810 Plate Assembler. […] In this paper, experiments were repeated twice and set the holes without compounds as negative control.
(§5) 2. Test Method for Measuring EC50 of the Compounds by Detecting Antibiotic G418 Resistance Gene NEO Gene.
(§6) In this paper, experiments were repeated twice and set the holes without compounds as negative control.

A further test relates to HCV 1b replicon. Nature of the test: HCV GT1b replicon assay in Huh-7 cells. In kind it is cell-based, Hepatitis C virus. Conditions: Hepatitis C virus; Huh-7 cells transfected with HCV replicon, 72 hours incubation; read-out: EC50 against HCV 1b genotype. The method, then: as §1, §2, §3, §4, §5, §6
(In antiviral work, replicon cells carry a viral genome segment that copies itself.)

As a reminder, the EC50 is the concentration giving half of the maximal effect. Regarding `COC(=O)N[C@H](C(=O)N1CCC[C@H]1c1nc2ccc(-c3ccc(-c4ccc5nc([C@@H]6CCCN6C(=O)[C@@H](NC(=O)OC)C(C)C)[nH]c(=O)c5c4)c4c3CC3(CCCC3)C4)cc2c(=O)[nH]1)C(C)C` [Example 6], the values for the EC50 with HCV 1a replicon and in the test with HCV 1b replicon were 0.109 nM and 0.077 nM, respectively.
As to `COC(=O)NC(C(=O)N1CCC[C@@H]1c1ncc(-c2ccc(-c3ccc(-c4ccc5nc([C@@H]6CCCN6C(=O)[C@@H](NC(=O)OC)C(C)C)[nH]c(=O)c5c4)c4c3CC3(CCCC3)C4)cc2)[nH]1)C(C)C` (stereo partly shown) [Example 34], the EC50 was determined as 0.641 nM with HCV 1a replicon and 0.055 nM with HCV 1b replicon.
As for `COC(=O)N[C@H](C(=O)N1CCC[C@H]1C1=Nc2cc(-c3ccc(-c4ccc(-c5cnc([C@@H]6CCCN6C(=O)[C@@H](NC(=O)OC)C(C)C)[nH]5)cc4)c4c3CC3(CCCC3)C4)ccc2S(=O)(=O)N1)C(C)C` [Example 5], the results for the EC50 in the test on HCV 1a replicon and in the test on HCV 1b replicon were 0.078 nM and 0.023 nM, respectively.
The corresponding values for `COC(=O)N[C@H](C(=O)N1C2CC2C[C@H]1c1ncc(-c2ccc(-c3ccc(-c4ccc5nc([C@@H]6CC7CC7N6C(=O)[C@@H](NC(=O)OC)C(C)C)[nH]c(=O)c5c4)c4c3CC3(CCCC3)C4)cc2)[nH]1)C(C)C` (stereo partly shown) [Example 22] are 0.561 nM and 0.072 nM.
Turning to `COC(=O)N[C@H](C(=O)N1CC(C)(C)C[C@H]1c1ncc(-c2ccc(-c3ccc(-c4ccc5nc([C@@H]6CC(C)(C)CN6C(=O)[C@@H](NC(=O)OC)C(C)C)[nH]c(=O)c5c4)c4c3CC3(CCCC3)C4)cc2)[nH]1)C(C)C` [Example 18], the half-maximal effective concentration (EC50) is 0.326 nM in the test with HCV 1a replicon and 0.065 nM in the test on HCV 1b replicon.
Turning to `COC(=O)N[C@H](C(=O)N1CCC[C@H]1c1ncc(-c2ccc(-c3sc(-c4ccc5nc([C@@H]6CCCN6C(=O)[C@@H](NC(=O)OC)C(C)C)[nH]c5c4)c4c3CC3(CCCC3)C4)c3cnoc23)[nH]1)C(C)C` [Example 32], the EC50 in the test with HCV 1a replicon came to 10.3 nM; in the test with HCV 1b replicon it was 0.446 nM.
For the molecule `COC(=O)N[C@H](C(=O)N1CCC[C@H]1c1ncc(-c2ccc(-c3sc(-c4ccc5nc([C@@H]6CCCN6C(=O)[C@@H](NC(=O)OC)C(C)C)[nH]c(=O)c5c4)c4c3CC3(CCCC3)C4)cc2)[nH]1)C(C)C` [Example 28], the concentration for a half-maximal effect (EC50) in the test with HCV 1a replicon worked out at 1.1 nM; with HCV 1b replicon, 0.763 nM.
Turning to `COC(=O)N[C@H](C(=O)N1CC2(CC2)C[C@H]1c1ncc(-c2ccc(-c3ccc(-c4ccc5nc([C@@H]6CC7(CC7)CN6C(=O)[C@@H](NC(=O)OC)C(C)C)[nH]c(=O)c5c4)c4c3CC3(CCCC3)C4)cc2)[nH]1)C(C)C` [Example 21], the 50% effective concentration (EC50) in the test with HCV 1a replicon was 0.08 nM; in the test on HCV 1b replicon it was 0.029 nM.
As to `COC(=O)N[C@H](C(=O)N1CCC[C@H]1c1cc(=O)c2cc(-c3ccc(-c4ccc(-c5cnc([C@@H]6CCCN6C(=O)[C@@H](NC(=O)OC)C(C)C)[nH]5)cc4)c4c3CC3(CCCC3)C4)ccc2[nH]1)C(C)C` [Example 2], the EC50 with HCV 1a replicon was determined as 1.28 nM; in the test on HCV 1b replicon it was 0.087 nM.
On to `COC(=O)N[C@H](C(=O)N1CCC[C@H]1c1ncc(-c2ccc(-c3ccc(-c4ccc5nc([C@@H]6CCCN6C(=O)[C@@H](NC(=O)OC)C(C)C)[nH]c(=O)c5c4)c4c3CC3(CCCC3)C4)cc2)[nH]1)C(C)C` [Example 1], for which the half-maximal effective concentration (EC50) worked out at 0.76 nM in the test with HCV 1a replicon and 0.042 nM with HCV 1b replicon.
For the molecule `COC(=O)N[C@H](C(=O)N1CCC[C@H]1c1ncc(-c2ccc(-c3ccc(-c4ccc5nc([C@@H]6CC7CC7N6C(=O)[C@@H](NC(=O)OC)C(C)C)[nH]c(=O)c5c4)c4c3OC3(CCCC3)O4)cc2)[nH]1)C(C)C` (stereo partly shown) [Example 11], the concentration giving a half-maximal response (EC50) in the test on HCV 1a replicon amounted to 0.068 nM; in the test with HCV 1b replicon, 0.032 nM.
On to `CCC(C)[C@H](NC(=O)OC)C(=O)N1CCC[C@H]1c1nc(=O)c2cc(-c3ccc(-c4ccc(-c5cnc([C@@H]6CCCN6C(=O)[C@@H](NC(=O)OC)C(C)C)[nH]5)cc4)c4c3CC3(CCCCC3)C4)ccc2[nH]1` (stereo partly shown) [Example 8], for which the results for the EC50 in the test on HCV 1a replicon and with HCV 1b replicon were 0.982 nM and 0.065 nM, respectively.
For the molecule `COC(=O)N[C@H](C(=O)N1[C@@H]2CC[C@@H](C2)[C@H]1c1ncc(-c2ccc(-c3ccc(-c4ccc5nc([C@@H]6[C@H]7CC[C@H](C7)N6C(=O)[C@@H](NC(=O)OC)C(C)C)[nH]c(=O)c5c4)c4c3CC3(CCCC3)C4)cc2)[nH]1)C(C)C` [Example 23], the EC50 turned out to be 0.31 nM in the test with HCV 1a replicon and 0.047 nM in the test with HCV 1b replicon.
Take `COC(=O)N[C@H](C(=O)N1CCC[C@H]1c1ncc(-c2ccc(-c3ccc(-c4ccc5nc([C@@H]6CC7CC7N6C(=O)[C@@H](NC(=O)OC)C(C)C)[nH]c(=O)c5c4)c4c3CC3(CCCC3)C4)c3cnoc23)[nH]1)C(C)C` (stereo partly shown) [Example 27]: the values for the EC50 in the test with HCV 1a replicon and with HCV 1b replicon were 1.53 nM and 0.323 nM, respectively.
Regarding `CC(C)[C@H](NC(=O)Oc1ccccc1)C(=O)N1CC(C)(C)C[C@H]1c1ncc(-c2ccc(-c3ccc(-c4ccc5nc([C@@H]6CC(C)(C)CN6C(=O)[C@@H](NC(=O)Oc6ccccc6)C(C)C)[nH]c(=O)c5c4)c4c3CC3(CCCC3)C4)cc2)[nH]1` [Example 19], the half-maximal effective concentration (EC50) in the test with HCV 1a replicon was 4.77 nM; with HCV 1b replicon, 0.436 nM.
Taken in the same sequence, the figures for `COC(=O)NC(C(=O)N1CCC[C@H]1c1ncc(-c2ccc(-c3cc(F)c(-c4ccc5nc([C@@H]6CCCN6C(=O)[C@@H](NC(=O)OC)C(C)C)[nH]c(=O)c5c4)c4c3CC3(CCCC3)C4)nc2)[nH]1)C(C)C` (stereo partly shown) [Example 33] were 0.078 nM and 0.022 nM.
For the molecule `COC(=O)N[C@H](C(=O)N1CC(F)(F)CC1c1nc(-c2ccc(-c3ccc(-c4ccc5nc([C@@H]6CC(F)(F)CN6C(=O)[C@@H](NC(=O)OC)C(C)C)[nH]c(=O)c5c4)c4c3CC3(CCOCC3)C4)cc2)c[nH]1)C(C)C` (stereo partly shown) [Example 12], the results for the EC50 in the test with HCV 1a replicon and in the test on HCV 1b replicon were 0.38 nM and 0.049 nM, respectively.
The corresponding values for `COC(=O)N[C@H](C(=O)N1CCC[C@H]1c1ncc(-c2ccc(-c3ccc(-c4ccc5nc([C@@H]6CC7CC7N6C(=O)[C@@H](NC(=O)OC)C(C)C)[nH]c(=O)c5c4)c4c3CC3(CCCC3)C4)c3ccccc23)[nH]1)C(C)C` (stereo partly shown) [Example 26] are 0.727 nM and 0.216 nM.
Taken in the same sequence, the figures for `COC(=O)N[C@H](C(=O)N1CCC[C@H]1c1ncc(-c2ccc(-c3ccc(-c4ccc5nc([C@@H]6CC7CC7N6C(=O)[C@@H](NC(=O)OC)C(C)C)[nH]c(=O)c5c4)c4c3CC3(CCN(C)CC3)C4)cc2)[nH]1)C(C)C` (stereo partly shown) [Example 10] were 1.27 nM and 0.438 nM.
Turning to `COC(=O)N[C@H](C(=O)N1CCC[C@H]1c1ncc(-c2ccc(-c3ccc(-c4ccc5nc([C@@H]6CCCN6C(=O)[C@@H](NC(=O)OC)c6ccccc6)[nH]c(=O)c5c4)c4c3CC3(CCCC3)C4)cc2)[nH]1)c1ccccc1` [Example 13], the 50% effective concentration (EC50) in the test with HCV 1a replicon was 2.07 nM; in the test on HCV 1b replicon, 0.273 nM.
Regarding `COC(=O)N[C@H](C(=O)N1CC2(C[C@H]1c1ncc(-c3ccc(-c4ccc(-c5ccc6nc([C@@H]7CCCN7C(=O)[C@@H](NC(=O)OC)C(C)C)[nH]c(=O)c6c5)c5c4CC4(CCCC4)C5)cc3)[nH]1)OCCO2)C(C)C` [Example 24], the EC50 with HCV 1a replicon came out at 0.475 nM; with HCV 1b replicon it was 0.099 nM.
With `COC(=O)N[C@H](C(=O)C1CCCC[C@H]1c1nc2ccc(-c3ccc(-c4ccc(-c5cnc(C6CCCCN6C(=O)[C@@H](NC(=O)OC)C(C)C)[nH]5)cc4)c4c3CC3(CCCC3)C4)cc2c(=O)[nH]1)C(C)C` (stereo partly shown) [Example 16], the EC50 in the test on HCV 1a replicon was 0.089 nM; with HCV 1b replicon, 0.036 nM.
The corresponding values for `COC(=O)N[C@H](C(=O)N1CCC[C@H]1c1ncc(-c2ccc(-c3ccc(-c4ccc5nc([C@@H]6CC7CC7N6C(=O)[C@@H](NC(=O)OC)C(C)C)[nH]c(=O)c5c4)c4c3CC3(CCCC3)C4)c3c2CCC3)[nH]1)C(C)C` (stereo partly shown) [Example 25] are 0.829 nM and 0.103 nM.
